Measurements from US9499535B2, “Kinase inhibitors” (ORIGENIS GMBH, priority 2011, dated 2016).

Legend:
[1] = target: T1, SYK kinase (Homo sapiens, UniProt P43405); test: SYK assay (OMNIA Kinase Assay, Invitrogen); assay type: biochemical; details: apparent Ki calculated from the IC50 using the Cheng-Prusoff equation; 1 mM ATP, 10 μM Peptide Substrate; read-out: SYK Activities: Ki
T1 construct: purchased Invitrogen, Carlsbad
Procedure, shortened: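 Reaction velocities were measured from kinetic fluorescence reads (360/485 nm, every 30 s over 30 min) of Mg2+-chelated SOX signal. Conditions were 1 mM ATP, 10 μM Omnia Tyr 7 peptide and 0.2 mM DTT at 30° C. Sigmoidal IC50 fits were converted to apparent Ki using Cheng-Prusoff.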

[2] = target: MYLK (Homo sapiens, UniProt Q15746); test: MYLK assay (LanthaScreen Eu Kinase Binding Assay); details: 5 nM MYLK, 30 nM tracer 236, RT 1 h; read-out: MYLK Activites: IC50
MYLK, sequence (Q15746 whole entry): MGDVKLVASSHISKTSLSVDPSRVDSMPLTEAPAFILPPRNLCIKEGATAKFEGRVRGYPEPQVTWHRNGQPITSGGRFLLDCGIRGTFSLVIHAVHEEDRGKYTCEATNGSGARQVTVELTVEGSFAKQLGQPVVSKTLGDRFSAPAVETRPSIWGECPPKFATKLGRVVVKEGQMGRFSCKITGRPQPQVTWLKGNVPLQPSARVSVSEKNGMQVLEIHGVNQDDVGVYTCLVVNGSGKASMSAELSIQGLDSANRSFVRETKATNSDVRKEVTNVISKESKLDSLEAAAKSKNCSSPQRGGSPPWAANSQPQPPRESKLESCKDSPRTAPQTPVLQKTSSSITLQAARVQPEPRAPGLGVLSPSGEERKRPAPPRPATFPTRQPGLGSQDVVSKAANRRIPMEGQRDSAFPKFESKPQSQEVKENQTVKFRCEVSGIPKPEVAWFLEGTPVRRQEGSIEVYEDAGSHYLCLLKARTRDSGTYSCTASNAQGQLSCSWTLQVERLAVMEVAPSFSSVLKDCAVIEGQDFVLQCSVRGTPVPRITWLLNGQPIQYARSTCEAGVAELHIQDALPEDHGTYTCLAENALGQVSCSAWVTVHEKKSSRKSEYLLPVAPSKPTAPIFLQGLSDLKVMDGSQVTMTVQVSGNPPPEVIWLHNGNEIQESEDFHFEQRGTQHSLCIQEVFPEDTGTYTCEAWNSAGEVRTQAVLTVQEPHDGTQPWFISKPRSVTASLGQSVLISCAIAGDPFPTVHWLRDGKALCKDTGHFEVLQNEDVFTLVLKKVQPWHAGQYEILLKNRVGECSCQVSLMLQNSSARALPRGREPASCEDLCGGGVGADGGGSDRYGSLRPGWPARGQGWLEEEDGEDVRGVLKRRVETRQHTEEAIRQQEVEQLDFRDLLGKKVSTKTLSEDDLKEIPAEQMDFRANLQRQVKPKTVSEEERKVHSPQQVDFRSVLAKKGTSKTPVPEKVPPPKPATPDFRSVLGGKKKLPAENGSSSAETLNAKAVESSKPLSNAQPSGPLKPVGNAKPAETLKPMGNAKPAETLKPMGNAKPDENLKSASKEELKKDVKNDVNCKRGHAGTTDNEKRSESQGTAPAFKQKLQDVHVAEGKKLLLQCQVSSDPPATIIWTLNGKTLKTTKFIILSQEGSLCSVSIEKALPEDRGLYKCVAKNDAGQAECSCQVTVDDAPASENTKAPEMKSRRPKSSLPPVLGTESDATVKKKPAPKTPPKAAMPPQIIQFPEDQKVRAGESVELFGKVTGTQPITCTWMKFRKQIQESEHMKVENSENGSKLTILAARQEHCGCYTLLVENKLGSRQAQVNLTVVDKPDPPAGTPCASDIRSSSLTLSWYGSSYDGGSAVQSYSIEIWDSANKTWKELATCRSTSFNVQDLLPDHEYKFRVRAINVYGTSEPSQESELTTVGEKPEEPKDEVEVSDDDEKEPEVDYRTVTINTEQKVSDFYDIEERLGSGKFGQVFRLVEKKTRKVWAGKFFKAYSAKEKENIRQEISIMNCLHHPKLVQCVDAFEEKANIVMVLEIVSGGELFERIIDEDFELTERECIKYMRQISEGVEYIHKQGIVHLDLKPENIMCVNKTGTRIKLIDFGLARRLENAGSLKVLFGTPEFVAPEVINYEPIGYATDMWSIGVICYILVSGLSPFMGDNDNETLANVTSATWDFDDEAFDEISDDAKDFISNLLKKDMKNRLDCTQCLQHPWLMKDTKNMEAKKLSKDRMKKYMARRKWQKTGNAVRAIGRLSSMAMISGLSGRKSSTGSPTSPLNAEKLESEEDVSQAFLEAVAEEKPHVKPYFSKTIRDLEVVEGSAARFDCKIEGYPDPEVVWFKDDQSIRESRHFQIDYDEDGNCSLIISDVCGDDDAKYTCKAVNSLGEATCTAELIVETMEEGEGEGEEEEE
Procedure, shortened: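 TR-FRET tracer-displacement binding: 5 nM MYLK with 2 nM Eu-anti-GST antibody and 30 nM tracer 236 in kinase buffer A, 1 h at RT. The 665/615 nm emission ratio was plotted against inhibitor concentration; IC50 from variable-slope sigmoidal fit.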

[3] = target: LRRK2 (Homo sapiens, UniProt Q5S007); test: LRRK2 assay (LanthaScreen Eu Kinase Binding Assay); details: 5 nM LRRK2, 10 nM tracer 236, RT 1 h; read-out: LRRK2 Activites: IC50
LRRK2, sequence (Q5S007 970-2527 limits assumed): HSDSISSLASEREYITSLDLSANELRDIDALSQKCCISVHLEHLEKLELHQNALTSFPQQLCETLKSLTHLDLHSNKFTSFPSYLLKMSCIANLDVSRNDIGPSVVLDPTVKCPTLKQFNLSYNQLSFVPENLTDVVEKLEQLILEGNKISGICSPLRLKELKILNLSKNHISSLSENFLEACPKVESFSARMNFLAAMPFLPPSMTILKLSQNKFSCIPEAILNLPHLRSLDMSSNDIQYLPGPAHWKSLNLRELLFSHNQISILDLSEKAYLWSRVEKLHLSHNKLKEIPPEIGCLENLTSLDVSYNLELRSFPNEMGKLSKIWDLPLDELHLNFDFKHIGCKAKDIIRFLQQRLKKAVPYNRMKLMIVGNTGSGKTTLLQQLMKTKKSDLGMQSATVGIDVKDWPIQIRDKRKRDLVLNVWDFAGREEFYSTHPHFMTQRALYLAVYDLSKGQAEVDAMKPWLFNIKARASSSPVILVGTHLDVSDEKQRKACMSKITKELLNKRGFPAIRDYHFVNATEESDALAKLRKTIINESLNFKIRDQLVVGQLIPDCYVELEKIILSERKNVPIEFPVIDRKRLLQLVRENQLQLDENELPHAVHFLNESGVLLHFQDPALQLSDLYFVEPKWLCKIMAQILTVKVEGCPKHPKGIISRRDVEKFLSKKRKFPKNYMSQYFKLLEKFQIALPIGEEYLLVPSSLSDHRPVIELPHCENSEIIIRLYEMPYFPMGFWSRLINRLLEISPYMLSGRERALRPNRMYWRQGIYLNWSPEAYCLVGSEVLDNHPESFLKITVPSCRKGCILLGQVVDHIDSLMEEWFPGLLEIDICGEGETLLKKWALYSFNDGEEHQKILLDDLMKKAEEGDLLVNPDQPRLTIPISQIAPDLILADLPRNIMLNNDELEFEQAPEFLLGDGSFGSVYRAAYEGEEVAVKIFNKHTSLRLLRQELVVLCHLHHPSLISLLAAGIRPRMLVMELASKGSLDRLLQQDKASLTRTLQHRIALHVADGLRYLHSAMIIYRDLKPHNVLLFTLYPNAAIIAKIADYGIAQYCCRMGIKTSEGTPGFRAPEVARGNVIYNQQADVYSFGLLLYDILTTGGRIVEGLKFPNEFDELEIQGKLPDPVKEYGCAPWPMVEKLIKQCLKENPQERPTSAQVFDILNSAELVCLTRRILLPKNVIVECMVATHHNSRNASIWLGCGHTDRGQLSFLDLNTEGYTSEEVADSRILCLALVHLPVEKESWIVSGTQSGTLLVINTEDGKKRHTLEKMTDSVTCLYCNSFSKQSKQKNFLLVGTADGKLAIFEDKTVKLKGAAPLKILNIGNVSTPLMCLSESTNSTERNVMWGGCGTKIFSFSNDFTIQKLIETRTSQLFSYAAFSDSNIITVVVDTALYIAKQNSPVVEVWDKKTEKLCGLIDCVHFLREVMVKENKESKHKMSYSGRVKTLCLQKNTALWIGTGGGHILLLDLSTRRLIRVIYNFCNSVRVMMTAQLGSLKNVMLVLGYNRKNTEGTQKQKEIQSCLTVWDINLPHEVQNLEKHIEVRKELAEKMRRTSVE
Procedure, shortened: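 IC50 was derived from a sigmoidal dose-response fit with variable slope, plotting emission ratio against inhibitor concentration. The read-out is loss of FRET between a europium-labelled anti-tag antibody on the kinase and a tracer displaced by inhibitor.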

Ki [1] | IC50 [2] | IC50 [3] | Compound
< 10 nM | < 5000 nM | 10 to 100 nM | COc1ccc2nc(Nc3ccc(N4CCN(C(C)C)CC4)cc3)c3n[nH]cc3c2c1 [Example #271, [4-(4-Isopropyl-piperazin-1-yl)-phenyl]-(8-methoxy-2H-pyrazolo[3,4-c]quinolin-4-yl)-amine]
10 to 100 nM | < 5000 nM | 100 to 1000 nM | COc1ccc2nc(Nc3ccc(N4CCN(C(C)(C)C)CC4)cc3)c3n[nH]cc3c2c1 [Example #273, [4-(4-tert-Butyl-piperazin-1-yl)-phenyl]-(8-methoxy-2H-pyrazolo[3,4-c]quinolin-4-yl)-amine]
10 to 100 nM | < 5000 nM | 100 to 1000 nM | COc1ccc2nc(Nc3ccc(CO)cc3)c3n[nH]cc3c2c1 [Example #280, (4-((8-methoxy-2H-pyrazolo[3,4-c]quinolin-4-yl)amino)phenyl)methanol]
10 to 100 nM | < 5000 nM | < 10 nM | COc1ccc2nc(Nc3ccc4cc(C(=O)O)ccc4c3)c3n[nH]cc3c2c1 [Example #286, 6-((8-methoxy-2H-pyrazolo[3,4-c]quinolin-4-yl)amino)-2-naphthoic acid]
10 to 100 nM | < 5000 nM | 100 to 1000 nM | COc1ccc2nc(Nc3ccc(OCC(=O)O)cc3)c3n[nH]cc3c2c1 [Example #290, 2-(4-((8-methoxy-2H-pyrazolo[3,4-c]quinolin-4-yl)amino)phenoxy)acetic acid]
10 to 100 nM | < 5000 nM | 100 to 1000 nM | COc1ccc2nc(Nc3ccc4c(c3)CN(C)C4)c3n[nH]cc3c2c1 [Example #294, 8-methoxy-N-(2-methylisoindolin-5-yl)-2H-pyrazolo[3,4-c]quinolin-4-amine]
100 to 1000 nM | < 5000 nM | 100 to 1000 nM | O=C(O)c1cccc(Nc2nc3ccc(O)cc3c3c[nH]nc23)c1 [Example #296, 3-((8-hydroxy-2H-pyrazolo[3,4-c]quinolin-4-yl)amino)benzoic acid]
10 to 100 nM | < 5000 nM | 10 to 100 nM | COc1ccc2nc(Nc3ccc(C(=O)N(C)CCN(C)C)cc3)c3n[nH]cc3c2c1 [Example #300, N-(2-(dimethylamino)ethyl)-4-((8-methoxy-2H-pyrazolo[3,4-c]quinolin-4-yl)amino)-N-methylbenzamide]
10 to 100 nM | < 5000 nM | 10 to 100 nM | COCC1CCCN1C(=O)c1ccc(Nc2nc3ccc(OC)cc3c3c[nH]nc23)cc1 (stereo not drawn) [Example #301, (4-((8-methoxy-2H-pyrazolo[3,4-c]quinolin-4-yl)amino)phenyl)(2-(methoxymethyl)pyrrolidin-1-yl)methanone]
100 to 1000 nM | < 5000 nM | 10 to 100 nM | COc1ccc2nc(Nc3ccc(C(=O)N(C)C)cc3)c3n[nH]cc3c2c1 [Example #303, 4-((8-methoxy-2H-pyrazolo[3,4-c]quinolin-4-yl)amino)-N,N-dimethylbenzamide]
10 to 100 nM | < 5000 nM | 100 to 1000 nM | COc1ccc2nc(Nc3ccc4c(c3)CCCN4C)c3n[nH]cc3c2c1 [Example #308, 8-methoxy-N-(1-methyl-1,2,3,4-tetrahydroquinolin-6-yl)-2H-pyrazolo[3,4-c]quinolin-4-amine]
100 to 1000 nM | < 5000 nM | 100 to 1000 nM | COc1ccc2nc(Nc3cccc(S(C)(=O)=O)c3)c3n[nH]cc3c2c1 [Example #320, 8-methoxy-N-(3-(methylsulfonyl)phenyl)-2H-pyrazolo[3,4-c]quinolin-4-amine]
100 to 1000 nM | < 5000 nM | 100 to 1000 nM | COc1cccc2nc(Nc3cccc(S(C)(=O)=O)c3)c3[nH]ncc3c12 [Example #338, 9-methoxy-N-(3-(methylsulfonyl)phenyl)-3H-pyrazolo[3,4-c]quinolin-4-amine]
100 to 1000 nM | < 5000 nM | 100 to 1000 nM | COc1ccc2nc(Nc3cccc([S+](C)[O-])c3)c3n[nH]cc3c2c1 (stereo not drawn) [Example #346, 8-methoxy-N-(3-(methylsulfinyl)phenyl)-2H-pyrazolo[3,4-c]quinolin-4-amine]
10 to 100 nM | < 5000 nM | 10 to 100 nM | CNS(=O)(=O)c1cccc(Nc2nc3ccc(OC)cc3c3c[nH]nc23)c1 [Example #348, 3-((8-methoxy-2H-pyrazolo[3,4-c]quinolin-4-yl)amino)-N-methylbenzenesulfonamide]

Continued, compound first:

Compound | Ki [1] | IC50 [2] | IC50 [3]
COc1ccc2nc(Nc3ccc(N4CCN(C5CCCC5)CC4)cc3)c3n[nH]cc3c2c1 [Example #269, [4-(4-Cyclopentyl-piperazin-1-yl)-phenyl]-(8-methoxy-2H-pyrazolo[3,4-c]quinolin-4-yl)-amine] | 100 to 1000 nM | < 5000 nM | 10 to 100 nM
COc1ccc2nc(Nc3ccc(N4CCN(CC(C)C)CC4)cc3)c3n[nH]cc3c2c1 [Example #270, [4-(4-Isobutyl-piperazin-1-yl)-phenyl]-(8-methoxy-2H-pyrazolo[3,4-c]quinolin-4-yl)-amine] | < 10 nM | < 5000 nM | 100 to 1000 nM
COc1ccc2nc(Nc3ccc(N4CCN(CC5CC5)CC4)cc3)c3n[nH]cc3c2c1 [Example #272, [4-(4-Cyclopropylmethyl-piperazin-1-yl)-phenyl]-(8-methoxy-2H-pyrazolo[3,4-c]quinolin-4-yl)-amine] | < 10 nM | < 5000 nM | 10 to 100 nM
COc1ccc2nc(Nc3ccc(N4CCN(CC(=O)O)CC4)cc3)c3n[nH]cc3c2c1 [Example #277, 2-(4-(4-((8-methoxy-2H-pyrazolo[3,4-c]quinolin-4-yl)amino)phenyl)piperazin-1-yl)acetic-acid] | 10 to 100 nM | < 5000 nM | 10 to 100 nM
COc1ccc2nc(Nc3ccc(N4CCN(CCN(C)C)CC4)cc3)c3n[nH]cc3c2c1 [Example #281, {4-[4-(2-Dimethylamino-ethyl)-piperazin-1-yl]-phenyl}-(8-methoxy-2H-pyrazolo[3,4-c]quinolin-4-yl)-amine] | 10 to 100 nM | < 5000 nM | 10 to 100 nM
COc1cc(OC)c2nc(Nc3ccc(CN4CCN(C)CC4)cc3)c3n[nH]cc3c2c1 [Example #282, (6,8-Dimethoxy-2H-pyrazolo[3,4-c]quinolin-4-yl)-[4-(4-methyl-piperazin-1-ylmethyl)-phenyl]-amine] | 10 to 100 nM | < 5000 nM | 100 to 1000 nM
COc1cc(OC)c2nc(Nc3ccc(C(=O)N4CCN(C)CC4)cc3)c3n[nH]cc3c2c1 [Example #283, (4-((6,8-dimethoxy-2H-pyrazolo[3,4-c]quinolin-4-yl)amino)phenyl)(4-methylpiperazin-1-yl)methanone] | 10 to 100 nM | < 5000 nM | 100 to 1000 nM
COc1cc(OC)c2nc(Nc3ccc(CN(C)C)cc3)c3n[nH]cc3c2c1 [Example #284, (6,8-Dimethoxy-2H-pyrazolo[3,4-c]quinolin-4-yl)-(4-dimethylaminomethyl-phenyl)-amine] | 10 to 100 nM | < 5000 nM | 100 to 1000 nM
CC(=O)N1CCN(c2ccc(Nc3nc4ccc(F)cc4c4cn[nH]c34)cc2)CC1 [Example #323, 1-(4-(4-((8-fluoro-3H-pyrazolo[3,4-c]quinolin-4-yl)amino)phenyl)piperazin-1-yl)ethan-1-one] | 100 to 1000 nM | < 5000 nM | 100 to 1000 nM
O=C1COc2ccc(Nc3nc4ccc(F)cc4c4cn[nH]c34)cc2N1 [Example #324, 6-((8-fluoro-3H-pyrazolo[3,4-c]quinolin-4-yl)amino)-2H-benzo[b][1,4]oxazin-3(4H)-one] | 10 to 100 nM | < 5000 nM | 100 to 1000 nM
CN1CCN(c2ccc(Nc3nc4ccc(I)cc4c4cn[nH]c34)cc2)CC1 [Example #333, 8-iodo-N-(4-(4-methylpiperazin-1-yl)phenyl)-3H-pyrazolo[3,4-c]quinolin-4-amine] | < 10 nM | < 5000 nM | 100 to 1000 nM
COc1cccc2nc(Nc3ccc4c(c3)NC(=O)CC4)c3[nH]ncc3c12 [Example #339, 7-((9-methoxy-3H-pyrazolo[3,4-c]quinolin-4-yl)amino)-3,4-dihydroquinolin-2(1H)-one] | 10 to 100 nM | < 5000 nM | 10 to 100 nM
COc1cccc2nc(Nc3ccc(N4CCN(C(C)=O)CC4)cc3)c3[nH]ncc3c12 [Example #340, 1-(4-(4-((9-methoxy-3H-pyrazolo[3,4-c]quinolin-4-yl)amino)phenyl)piperazin-1-yl)ethan-1-one] | 10 to 100 nM | < 5000 nM | 10 to 100 nM
COc1cccc2nc(Nc3ccc(CN(C)C)cc3)c3[nH]ncc3c12 [Example #353, N-(4-((dimethylamino)methyl)phenyl)-9-methoxy-3H-pyrazolo[3,4-c]quinolin-4-amine] | 10 to 100 nM | < 5000 nM | 10 to 100 nM
